Measured values from PubChem BioAssay AID192 (DTP/NCI, 2004).
“And” between values parts separate entries of the source, which are not always exact repeats. Equal values may be shown once. Toxic doses and inconclusive results are not listed. How the source made its calls: active means survival T/C of 150% or more; inactive means T/C below 125% in these data.

Test system: BDF1 mice, B16 melanoma ip, median survival T/C
Assay: NCI In Vivo Anticancer Drug Screen. Data for tumor model B16 Melanoma (intraperitoneal) in B6D2F1 (BDF1) mice
Settings: endpoint: median survival time, higher = longer survival
Procedure, shortened: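 Read-out: survival or tumor size, given as treated/control ratio. Controls received vehicle only; animals bore transplantable tumors.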

Measured: T/C

CCc1nc(N)nc(N)c1-c1ccc(Cl)cc1
inactive: dose: 4.0 mg/kg/injection, schedule: Q01DX009 (ip), vehicle: Klucel (hydroxypropylcellulose) (HPC) 93 % of control | dose: 4.0 mg/kg/injection, schedule: Q01DX009 (oral), vehicle: Klucel (hydroxypropylcellulose) (HPC) 102 % of control | dose: 4.0 mg/kg/injection, schedule: Q01DX009 (sc), vehicle: Klucel (hydroxypropylcellulose) (HPC) 90 % of control | dose: 4.0 mg/kg/injection, schedule: Q06HX004 (ip), vehicle: Klucel (hydroxypropylcellulose) (HPC) 107 % of control | dose: 4.0 mg/kg/injection, schedule: Q06HX008 (ip), vehicle: Klucel (hydroxypropylcellulose) (HPC) 91 % of control | dose: 8.0 mg/kg/injection, schedule: Q01DX009 (ip), vehicle: Klucel (hydroxypropylcellulose) (HPC) 95 % of control | dose: 8.0 mg/kg/injection, schedule: Q01DX009 (oral), vehicle: Klucel (hydroxypropylcellulose) (HPC) 100 % of control | dose: 8.0 mg/kg/injection, schedule: Q01DX009 (sc), vehicle: Klucel (hydroxypropylcellulose) (HPC) 92 % of control | dose: 8.0 mg/kg/injection, schedule: Q06HX004 (ip), vehicle: Klucel (hydroxypropylcellulose) (HPC) 90 % of control | dose: 8.0 mg/kg/injection, schedule: Q06HX008 (ip), vehicle: Klucel (hydroxypropylcellulose) (HPC) 104 % of control | dose: 8.0 mg/kg/injection, schedule: Q06HX012 (ip), vehicle: Klucel (hydroxypropylcellulose) (HPC) 100 % of control | dose: 16.0 mg/kg/injection, schedule: Q01DX001 (ip), vehicle: Klucel (hydroxypropylcellulose) (HPC) 96 % of control | dose: 16.0 mg/kg/injection, schedule: Q01DX001 (oral), vehicle: Klucel (hydroxypropylcellulose) (HPC) 106 % of control | dose: 16.0 mg/kg/injection, schedule: Q01DX001 (sc), vehicle: Klucel (hydroxypropylcellulose) (HPC) 113 % of control | dose: 16.0 mg/kg/injection, schedule: Q01DX009 (ip), vehicle: Klucel (hydroxypropylcellulose) (HPC) 113 % of control | dose: 16.0 mg/kg/injection, schedule: Q01DX009 (oral), vehicle: Klucel (hydroxypropylcellulose) (HPC) 113 % of control | dose: 16.0 mg/kg/injection, schedule: Q01DX009 (sc), vehicle: Klucel (hydroxypropylcellulose) (HPC) 98 % of control | dose: 16.0 mg/kg/injection, schedule: Q04DX003 (ip), vehicle: Klucel (hydroxypropylcellulose) (HPC) 86 % of control | dose: 16.0 mg/kg/injection, schedule: Q06HX004 (ip), vehicle: Klucel (hydroxypropylcellulose) (HPC) 98 % of control | dose: 16.0 mg/kg/injection, schedule: Q06HX008 (ip), vehicle: Klucel (hydroxypropylcellulose) (HPC) 108 % of control | dose: 16.0 mg/kg/injection, schedule: Q06HX012 (ip), vehicle: Klucel (hydroxypropylcellulose) (HPC) 87 % of control | dose: 16.0 mg/kg/injection, schedule: Q08DX002 (ip), vehicle: Klucel (hydroxypropylcellulose) (HPC) 87 % of control | dose: 32.0 mg/kg/injection, schedule: Q01DX001 (ip), vehicle: Klucel (hydroxypropylcellulose) (HPC) 96 % of control | dose: 32.0 mg/kg/injection, schedule: Q01DX001 (oral), vehicle: Klucel (hydroxypropylcellulose) (HPC) 104 % of control | dose: 32.0 mg/kg/injection, schedule: Q01DX001 (sc), vehicle: Klucel (hydroxypropylcellulose) (HPC) 117 % of control | dose: 32.0 mg/kg/injection, schedule: Q01DX009 (ip), vehicle: Klucel (hydroxypropylcellulose) (HPC) 102 % of control | dose: 32.0 mg/kg/injection, schedule: Q01DX009 (oral), vehicle: Klucel (hydroxypropylcellulose) (HPC) 120 % of control | dose: 32.0 mg/kg/injection, schedule: Q01DX009 (sc), vehicle: Klucel (hydroxypropylcellulose) (HPC) 103 % of control | dose: 32.0 mg/kg/injection, schedule: Q04DX003 (ip), vehicle: Klucel (hydroxypropylcellulose) (HPC) 100 % of control | dose: 32.0 mg/kg/injection, schedule: Q06HX008 (ip), vehicle: Klucel (hydroxypropylcellulose) (HPC) 100 % of control | dose: 32.0 mg/kg/injection, schedule: Q08DX002 (ip), vehicle: Klucel (hydroxypropylcellulose) (HPC) 102 % of control | dose: 64.0 mg/kg/injection, schedule: Q01DX001 (sc), vehicle: Klucel (hydroxypropylcellulose) (HPC) 117 % of control | dose: 64.0 mg/kg/injection, schedule: Q01DX009 (sc), vehicle: Klucel (hydroxypropylcellulose) (HPC) 101 % of control | dose: 64.0 mg/kg/injection, schedule: Q04DX003 (ip), vehicle: Klucel (hydroxypropylcellulose) (HPC) 100 % of control | dose: 64.0 mg/kg/injection, schedule: Q08DX002 (ip), vehicle: Klucel (hydroxypropylcellulose) (HPC) 100 % of control | dose: 128.0 mg/kg/injection, schedule: Q01DX001 (sc), vehicle: Klucel (hydroxypropylcellulose) (HPC) 106 % of control

CC(C)(C)OC(=O)CCC(NC(=O)OCc1ccccc1)C(=O)NN (stereo unspecified)
inactive: dose: 75.0 mg/kg/injection, schedule: Q04DX003 (ip), vehicle: Klucel (hydroxypropylcellulose) (HPC) 97 % of control | dose: 150.0 mg/kg/injection, schedule: Q04DX003 (ip), vehicle: Klucel (hydroxypropylcellulose) (HPC) 100 % of control | dose: 300.0 mg/kg/injection, schedule: Q04DX003 (ip), vehicle: Klucel (hydroxypropylcellulose) (HPC) 97 % of control

CN(C)N=Nc1cccc(C(N)=O)c1
inactive: dose: 5.0 mg/kg/injection, schedule: Q01DX009 (ip), vehicle: Klucel (hydroxypropylcellulose) (HPC) 103 % of control and 121 % of control | dose: 10.0 mg/kg/injection, schedule: Q01DX009 (ip), vehicle: Klucel (hydroxypropylcellulose) (HPC) 106 % of control and 113 % of control | dose: 20.0 mg/kg/injection, schedule: Q01DX009 (ip), vehicle: Klucel (hydroxypropylcellulose) (HPC) 111 % of control and 123 % of control | dose: 80.0 mg/kg/injection, schedule: Q01DX009 (ip), vehicle: Klucel (hydroxypropylcellulose) (HPC) 101 % of control and 118 % of control | dose: 100.0 mg/kg/injection, schedule: Q01DX009 (ip), vehicle: saline 46 % of control | dose: 160.0 mg/kg/injection, schedule: Q01DX009 (ip), vehicle: Klucel (hydroxypropylcellulose) (HPC) 113 % of control

CC(=O)c1ccc(F)cc1
inactive: dose: 25.0 mg/kg/injection, schedule: Q01DX009 (ip), vehicle: Klucel (hydroxypropylcellulose) (HPC) 100 % of control | dose: 50.0 mg/kg/injection, schedule: Q01DX009 (ip), vehicle: Klucel (hydroxypropylcellulose) (HPC) 106 % of control | dose: 100.0 mg/kg/injection, schedule: Q01DX009 (ip), vehicle: Klucel (hydroxypropylcellulose) (HPC) 103 % of control | dose: 200.0 mg/kg/injection, schedule: Q01DX009 (ip), vehicle: Klucel (hydroxypropylcellulose) (HPC) 106 % of control

C=CCc1cccc(OC)c1OCCN(CC)CC
inactive: dose: 5.0 mg/kg/injection, schedule: Q01DX009 (ip), vehicle: saline with Tween-80 88 % of control | dose: 10.0 mg/kg/injection, schedule: Q01DX009 (ip), vehicle: saline with Tween-80 100 % of control | dose: 20.0 mg/kg/injection, schedule: Q01DX009 (ip), vehicle: saline with Tween-80 100 % of control

CN(C)CCCNc1c2ccccc2nc2cccc([N+](=O)[O-])c12
inactive: dose: 2.0 micrograms/kg/injection, schedule: Q01DX009 (ip), vehicle: saline 112 % of control | dose: 4.0 micrograms/kg/injection, schedule: Q01DX009 (ip), vehicle: saline 116 % of control | dose: 8.0 micrograms/kg/injection, schedule: Q01DX009 (ip), vehicle: saline 107 % of control | dose: 16.0 micrograms/kg/injection, schedule: Q01DX009 (ip), vehicle: saline 109 % of control | dose: 32.0 micrograms/kg/injection, schedule: Q01DX009 (ip), vehicle: saline 121 % of control | dose: 63.0 micrograms/kg/injection, schedule: Q01DX009 (ip), vehicle: saline 103 % of control | dose: 125.0 micrograms/kg/injection, schedule: Q01DX009 (ip), vehicle: saline 90 % of control

C=C1N(C)c2ccccc2C1(C)C
inactive: dose: 1.0 mg/kg/injection, schedule: Q01DX009 (ip), vehicle: saline with Tween-80 104 % of control | dose: 2.0 mg/kg/injection, schedule: Q01DX009 (ip), vehicle: saline with Tween-80 100 % of control | dose: 4.0 mg/kg/injection, schedule: Q01DX009 (ip), vehicle: saline with Tween-80 98 % of control | dose: 13.0 mg/kg/injection, schedule: Q01DX009 (ip), vehicle: saline with Tween-80 117 % of control | dose: 19.0 mg/kg/injection, schedule: Q01DX009 (ip), vehicle: saline with Tween-80 98 % of control | dose: 29.0 mg/kg/injection, schedule: Q01DX009 (ip), vehicle: saline with Tween-80 104 % of control | dose: 45.0 mg/kg/injection, schedule: Q01DX009 (ip), vehicle: saline with Tween-80 98 % of control
